Assay results reported in US11407729B2, “Quinoline and quinazoline compounds and methods of use thereof” (Stingray Therapeutics, Inc., priority 2019, dated 2022).

Tests used:
[1] = molecular target: T1, ENPP1 protein (Homo sapiens, UniProt P22413); experiment: ENPP1 Inhibition Assay; assay type: biochemical; design: purchased R&D 6136-EN-010; conditions: substrate Thymidine 5′-monophosphate p-nitrophenol ester; 37° C. for 45 minutes; absorbance at 405 nm
T1 sequence (P22413 1-925): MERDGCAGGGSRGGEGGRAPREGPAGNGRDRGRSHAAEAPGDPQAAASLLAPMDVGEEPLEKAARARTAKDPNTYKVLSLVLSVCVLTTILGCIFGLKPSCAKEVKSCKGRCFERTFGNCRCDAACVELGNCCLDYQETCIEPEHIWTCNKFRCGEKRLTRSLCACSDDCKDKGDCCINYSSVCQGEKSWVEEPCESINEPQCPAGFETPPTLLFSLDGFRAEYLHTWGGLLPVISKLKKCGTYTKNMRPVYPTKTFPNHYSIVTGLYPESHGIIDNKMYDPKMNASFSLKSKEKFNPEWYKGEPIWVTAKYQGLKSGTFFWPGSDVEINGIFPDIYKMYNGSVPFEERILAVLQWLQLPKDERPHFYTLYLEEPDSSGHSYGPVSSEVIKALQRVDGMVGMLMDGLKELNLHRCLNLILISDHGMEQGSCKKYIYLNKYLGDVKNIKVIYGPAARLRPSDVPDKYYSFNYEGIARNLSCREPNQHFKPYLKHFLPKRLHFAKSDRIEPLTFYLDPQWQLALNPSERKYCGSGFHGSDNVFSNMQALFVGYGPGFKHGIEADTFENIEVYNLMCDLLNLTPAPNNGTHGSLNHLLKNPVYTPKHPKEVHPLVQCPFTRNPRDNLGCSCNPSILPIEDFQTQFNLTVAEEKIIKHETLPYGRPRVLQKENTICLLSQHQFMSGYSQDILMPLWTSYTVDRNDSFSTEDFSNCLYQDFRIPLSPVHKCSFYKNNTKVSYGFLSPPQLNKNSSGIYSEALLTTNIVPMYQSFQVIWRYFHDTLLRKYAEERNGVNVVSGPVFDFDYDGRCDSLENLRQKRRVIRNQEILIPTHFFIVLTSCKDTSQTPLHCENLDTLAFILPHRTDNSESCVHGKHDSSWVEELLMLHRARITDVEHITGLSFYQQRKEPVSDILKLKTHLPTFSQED
Method: 1. ENPP1 Inhibition Assay
An eight point serial dilution of drugs was prepared in 10× in assay buffer with the final assay concentrations starting at 10 μM, 3 μM, 1 μM, 0.3 μM . . . 0 μM. A dilution of DMSO was included as a control. The assay plate was set up as follows with each well in duplicate: 81 μL assay buffer+10 μL ENPP1 inhibitor or DMSO+5 μL Substrate+4 μL Enzyme. Both the enzyme and substrate were added to opposite sides of the well to ensure that there was no interaction until all wells had both components. The plate was then centrifuged gently for 10 seconds, followed by an incubation at 37° C. for 45 minutes.
IC50 values are determined using GraphPad Prism 5 software. The data were entered as an X-Y plot into the software as percent inhibition for each concentration of the drug. The concentration values of the drug were log transformed and the nonlinear regression was carried out using the “sigmoidal dose-response (variable slope)” option within the GraphPad software to model the data and calculate IC50 values.

[2] = molecular target: T1, ENPP1 protein; experiment: Thermal Shift Binding Assay; conditions: 1 μg of ENPP1 protein incubated with 100 μM of drug for 5 minutes; for ΔTm at 100 µM: read-out: Thermal Shift (Δ TmD)
Method: Thermal Shift Binding Assay.
The Thermal Shift Assays were implemented to study thermal stabilization of ENPP1 proteins upon ENPP1 inhibitor or ligand binding. These assays were used extensively on purified ENPP1 protein. In a 384-well plate, 1 μg of ENPP1 protein was incubated with 100 μM of the corresponding drug for 5 minutes. Each well was exposed to increasing temperatures to determine an unfolding temperature of the protein. […] 2′3′ cGAMP was used as a positive control, as it is a substrate of ENPP1.

IC50 [1] [nM]	ΔTm at 100 µM [2] [°C]	Thermal Shift (Δ TmD) [2]	Compound
835	3.6	–	COc1cc2nccc(N3CCC(C(C)CNS(N)(=O)=O)CC3)c2cc1N1CCOCC1 (centres unmarked) [Compound I-12]
4.55	4	–	CCC(CNS(N)(=O)=O)C1CCN(c2ccnc3cc(OC)c(OC)cc23)CC1 (centres unmarked) [Compound I-13, N-(2-(1-(6,7-dimethoxyquinolin-4-yl)piperidin-4-yl)butyl)sulfuricdiamide]
5.95	–	5.0	N-(2-(1-(6,7-dimethoxyquinolin-4-yl)piperidin-4-yl)propyl)sulfamoylcarbamate [Compound I-02]
5150	1.6	–	COc1ccc(OC)c(S(=O)(=O)Nc2cnc3ccccc3c2)c1 [Compound I-06, 2,5-dimethoxy-N-(quinolin-3-yl)benzenesulfonamide]
